Experimental data as given in US10369138B2, “Monobactam organic compounds for the treatment of bacterial infections” (Novartis AG, priority 2014, dated 2019).
≈ marks a conversion by molar mass, not a printed value.

Legend:
E. coli strain 25922 = test: MIC by broth microdilution, E. coli strain 25922; type: cell-based; conditions: Escherichia coli, 25922, E. coli strain 25922; read-out: Ec 25922 (MIC)
Outline: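 CLSI broth microdilution in cation-adjusted Mueller-Hinton broth, inoculum about 5×10^5 CFU/mL, 10% DMSO from the diluted series, 20 h at 35-37° C. MIC is the lowest concentration preventing visible growth, read by eye and at 600 nm.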

E. coli containing KPC-2 = test: MIC by broth microdilution, E. coli containing KPC-2 (Ec KPC2 Iso); type: cell-based; conditions: Escherichia coli, read-out: Ec KPC2 Iso (MIC), E. coli containing KPC-2 (carbapenemase from Klebsiella pneumoniae)
Outline: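 Host E. coli BW25113 pspB carrying multicopy pBAD18-kan plasmid with constitutive TEM-promoter KPC-2 expression (periplasmic signal sequence); broth microdilution per CLSI in cation-adjusted Mueller-Hinton broth, inoculum ~5×10^5 CFU/mL, compounds twofold serially diluted from DMSO masters (10% DMSO in dilution series added).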

| SMILES | MIC (E. coli strain 25922) | MIC (E. coli containing KPC-2) |
| --- | --- | --- |
| Cc1c[n+](C)ccc1-c1cn(C[C@@H]2[C@H](NC(=O)/C(=N\OC(C)(C)C(=O)O)c3csc(N)n3)C(=O)N2S(=O)(=O)O)nn1 [Example 49, (2R,3S)-3-((Z)-2-(2-aminothiazol-4-yl)-2-(((2-carboxypropan-2-yl)oxy)imino)acetamido)-2-((4-(1,3-dimethylpyridin-1-ium-4-yl)-1H-1,2,3-triazol-1-yl)methyl)-4-oxoazetidine-1-sulfonate] | 2 µg/mL | 16 µg/mL |
| CC(C)(O/N=C(\C(=O)N[C@@H]1C(=O)N(S(=O)(=O)O)[C@@H]1Cn1ccnn1)c1csc(N)n1)C(=O)O [Example 50, 2-(((Z)-(2-(((2R,3S)-2-((1H-1,2,3-triazol-1-yl)methyl)-4-oxo-1-sulfoazetidin-3-yl)amino)-1-(2-aminothiazol-4-yl)-2-oxoethylidene)amino)oxy)-2-methylpropanoic acid] | 2 µg/mL (≈ 3.98 µM) | 2.8 µg/mL (≈ 5.57 µM) |
| CC(C)(O/N=C(\C(=O)N[C@@H]1C(=O)N(S(=O)(=O)O)[C@@H]1Cn1cc(C(=O)O)nn1)c1csc(N)n1)C(=O)O [Example 51, 1-(((2R,3S)-3-((Z)-2-(2-aminothiazol-4-yl)-2-(((2-carboxypropan-2-yl)oxy)imino)acetamido)-4-oxo-1-sulfoazetidin-2-yl)methyl)-1H-1,2,3-triazole-4-carboxylic acid] | > 64 µg/mL | 16 µg/mL (≈ 29.3 µM) |
| CC(C)(O/N=C(\C(=O)N[C@@H]1C(=O)N(S(=O)(=O)O)[C@@H]1Cn1ncc(CN)n1)c1csc(N)n1)C(=O)O [Example 52, 2-(((Z)-(2-(((2R,3S)-2-((4-(aminomethyl)-2H-1,2,3-triazol-2-yl)methyl)-4-oxo-1-sulfoazetidin-3-yl)amino)-1-(2-aminothiazol-4-yl)-2-oxoethylidene)amino)oxy)-2-methylpropanoic acid] | 0.5 µg/mL (≈ 0.941 µM) | 1 µg/mL (≈ 1.88 µM) |
| CC(C)(O/N=C(\C(=O)N[C@@H]1C(=O)N(S(=O)(=O)O)[C@@H]1Cn1ncc(CNC(=N)N)n1)c1csc(N)n1)C(=O)O [Example 53, 2-(((Z)-(1-(2-aminothiazol-4-yl)-2-(((2R,3S)-2-((4-(guanidinomethyl)-2H-1,2,3-triazol-2-yl)methyl)-4-oxo-1-sulfoazetidin-3-yl)amino)-2-oxoethylidene)amino)oxy)-2-methylpropanoic acid] | 1 µg/mL (≈ 1.74 µM) | 1 µg/mL (≈ 1.74 µM) |
| CC(C)(O/N=C(\C(=O)N[C@@H]1C(=O)N(S(=O)(=O)O)[C@@H]1Cn1nccn1)c1csc(N)n1)C(=O)O [Example 54, 2-(((Z)-(2-(((2R,3S)-2-((2H-1,2,3-triazol-2-yl)methyl)-4-oxo-1-sulfoazetidin-3-yl)amino)-1-(2-aminothiazol-4-yl)-2-oxoethylidene)amino)oxy)-2-methylpropanoic acid] | 2 µg/mL (≈ 3.98 µM) | 1 µg/mL (≈ 1.99 µM) |
| Cc1cnn(C[C@@H]2[C@H](NC(=O)/C(=N\OC(C)(C)C(=O)O)c3csc(N)n3)C(=O)N2S(=O)(=O)O)n1 [Example 55, 2-(((Z)-(1-(2-aminothiazol-4-yl)-2-(((2R,3S)-2-((4-methyl-2H-1,2,3-triazol-2-yl)methyl)-4-oxo-1-sulfoazetidin-3-yl)amino)-2-oxoethylidene)amino)oxy)-2-methylpropanoic acid] | 16 µg/mL (≈ 31 µM) | 4 µg/mL (≈ 7.74 µM) |
| CC(C)(O/N=C(\C(=O)N[C@@H]1C(=O)N(S(=O)(=O)O)[C@@H]1Cn1cnnc1)c1csc(N)n1)C(=O)O [Example 56, 2-(((Z)-(2-(((2R,3S)-2-((4H-1,2,4-triazol-4-yl)methyl)-4-oxo-1-sulfoazetidin-3-yl)amino)-1-(2-aminothiazol-4-yl)-2-oxoethylidene)amino)oxy)-2-methylpropanoic acid] | 4 µg/mL (≈ 7.96 µM) | 16 µg/mL (≈ 31.8 µM) |
| CC(C)(O/N=C(\C(=O)N[C@@H]1C(=O)N(S(=O)(=O)O)[C@@H]1CN1C[C@@H](CN)OC1=O)c1csc(N)n1)C(=O)O [Example 57, 2-(((Z)-(2-(((2R,3S)-2-(((R)-5-(aminomethyl)-2-oxooxazolidin-3-yl)methyl)-4-oxo-1-sulfoazetidin-3-yl)amino)-1-(2-aminothiazol-4-yl)-2-oxoethylidene)amino)oxy)-2-methylpropanoic acid] | 0.5 µg/mL (≈ 0.91 µM) | 1 µg/mL (≈ 1.82 µM) |
| CC(C)(O/N=C(\C(=O)N[C@@H]1C(=O)N(S(=O)(=O)O)[C@@H]1CN1C[C@H](CN)OC1=O)c1csc(N)n1)C(=O)O [Example 58, 2-(((Z)-(2-(((2R,3S)-2-(((S)-5-(aminomethyl)-2-oxooxazolidin-3-yl)methyl)-4-oxo-1-sulfoazetidin-3-yl)amino)-1-(2-aminothiazol-4-yl)-2-oxoethylidene)amino)oxy)-2-methylpropanoic acid] | 2 µg/mL (≈ 3.64 µM) | 1 µg/mL (≈ 1.82 µM) |
| CC(C)(O/N=C(\C(=O)N[C@@H]1C(=O)N(S(=O)(=O)O)[C@@H]1CN1C[C@H](CNC(=N)N)OC1=O)c1csc(N)n1)C(=O)O [Example 59, 2-(((Z)-(1-(2-aminothiazol-4-yl)-2-(((2R,3S)-2-(((S)-5-(guanidinomethyl)-2-oxooxazolidin-3-yl)methyl)-4-oxo-1-sulfoazetidin-3-yl)amino)-2-oxoethylidene)amino)oxy)-2-methylpropanoic acid] | 16 µg/mL (≈ 27 µM) | 16 µg/mL (≈ 27 µM) |
| Cc1ncn(C[C@@H]2[C@H](NC(=O)/C(=N\OC(C)(C)C(=O)O)c3csc(N)n3)C(=O)N2S(=O)(=O)O)n1 [Example 60, 2-(((Z)-(1-(2-aminothiazol-4-yl)-2-(((2R,3S)-2-((3-methyl-1H-1,2,4-triazol-1-yl)methyl)-4-oxo-1-sulfoazetidin-3-yl)amino)-2-oxoethylidene)amino)oxy)-2-methylpropanoic acid] | 8 µg/mL (≈ 15.5 µM) | 8 µg/mL (≈ 15.5 µM) |
| Cc1ncnn1C[C@@H]1[C@H](NC(=O)/C(=N\OC(C)(C)C(=O)O)c2csc(N)n2)C(=O)N1S(=O)(=O)O [Example 61, 2-(((Z)-(1-(2-aminothiazol-4-yl)-2-(((2R,3S)-2-((5-methyl-1H-1,2,4-triazol-1-yl)methyl)-4-oxo-1-sulfoazetidin-3-yl)amino)-2-oxoethylidene)amino)oxy)-2-methylpropanoic acid] | 8 µg/mL (≈ 15.5 µM) | 2 µg/mL (≈ 3.87 µM) |
| CC(C)(O/N=C(\C(=O)N[C@@H]1C(=O)N(S(=O)(=O)O)[C@@H]1Cn1ncc(CNC=N)n1)c1csc(N)n1)C(=O)O [Example 62, 2-(((Z)-(1-(2-aminothiazol-4-yl)-2-(((2R,3S)-2-((4-(formimidamidomethyl)-2H-1,2,3-triazol-2-yl)methyl)-4-oxo-1-sulfoazetidin-3-yl)amino)-2-oxoethylidene)amino)oxy)-2-methylpropanoic acid] | 0.5 µg/mL (≈ 0.895 µM) | 2 µg/mL (≈ 3.58 µM) |
| CC(C)(O/N=C(\C(=O)N[C@@H]1C(=O)N(S(=O)(=O)O)[C@@H]1CN1C[C@@H](CO)OC1=O)c1csc(N)n1)C(=O)O [Example 63, 2-(((Z)-(1-(2-aminothiazol-4-yl)-2-(((2R,3S)-2-(((S)-5-(hydroxymethyl)-2-oxooxazolidin-3-yl)methyl)-4-oxo-1-sulfoazetidin-3-yl)amino)-2-oxoethylidene)amino)oxy)-2-methylpropanoic acid] | 32 µg/mL (≈ 58.1 µM) | 32 µg/mL (≈ 58.1 µM) |
| N=C(NC1CCNCC1)c1ccc(OC[C@H](O/N=C(\C(=O)N[C@@H]2C(=O)N(S(=O)(=O)O)[C@@H]2CN2CCOC2=O)c2csc(N)n2)C(=O)O)cc1 [Example 64, (S)-2-(((Z)-(1-(2-aminothiazol-4-yl)-2-oxo-2-(((3S,4R)-2-oxo-4-((2-oxooxazolidin-3-yl)methyl)-1-sulfoazetidin-3-yl)amino)ethylidene)amino)oxy)-3-(4-(N-(piperidin-4-yl)carbamimidoyl)phenoxy)propanoic acid] | 0.5 µg/mL (≈ 0.691 µM) | 0.25 µg/mL (≈ 0.345 µM) |
| CC(C)(O/N=C(\C(=O)N[C@@H]1C(=O)N(S(=O)(=O)O)[C@@H]1Cn1ncc(CNS(N)(=O)=O)n1)c1csc(N)n1)C(=O)O [Example 65, 2-(((Z)-(1-(2-aminothiazol-4-yl)-2-oxo-2-(((3S,4R)-2-oxo-4-((4-((sulfamoylamino)methyl)-2H-1,2,3-triazol-2-yl)methyl)-1-sulfoazetidin-3-yl)amino)ethylidene)amino)oxy)-2-methylpropanoic acid] | 64 µg/mL (≈ 105 µM) | 64 µg/mL (≈ 105 µM) |
| N=C(NCCN)c1ccc(OC[C@H](O/N=C(\C(=O)N[C@@H]2C(=O)N(S(=O)(=O)O)[C@@H]2Cn2ncc(CN)n2)c2csc(N)n2)C(=O)O)cc1 [Example 66, (S)-3-(4-(N-(2-aminoethyl)carbamimidoyl)phenoxy)-2-(((Z)-(2-(((2R,3S)-2-((4-(aminomethyl)-2H-1,2,3-triazol-2-yl)methyl)-4-oxo-1-sulfoazetidin-3-yl)amino)-1-(2-aminothiazol-4-yl)-2-oxoethylidene)amino)oxy)propanoic acid] | 1 µg/mL (≈ 1.44 µM) | 2 µg/mL (≈ 2.88 µM) |
| N=C(NCCN)c1ccc(OC[C@H](O/N=C(\C(=O)N[C@@H]2C(=O)N(S(=O)(=O)O)[C@@H]2Cn2cncn2)c2csc(N)n2)C(=O)O)cc1 [Example 67, (S)-2-(((Z)-(2-(((2R,3S)-2-((1H-1,2,4-triazol-1-yl)methyl)-4-oxo-1-sulfoazetidin-3-yl)amino)-1-(2-aminothiazol-4-yl)-2-oxoethylidene)amino)oxy)-3-(4-(N-(2-aminoethyl)carbamimidoyl)phenoxy)propanoic acid] | 0.25 µg/mL (≈ 0.376 µM) | 0.125 µg/mL (≈ 0.188 µM) |
| N=C(NC1CNC1)c1ccc(OC[C@H](O/N=C(\C(=O)N[C@@H]2C(=O)N(S(=O)(=O)O)[C@@H]2Cn2cncn2)c2csc(N)n2)C(=O)O)cc1 [Example 68, (S)-2-(((Z)-(2-(((2R,3S)-2-((1H-1,2,4-triazol-1-yl)methyl)-4-oxo-1-sulfoazetidin-3-yl)amino)-1-(2-aminothiazol-4-yl)-2-oxoethylidene)amino)oxy)-3-(4-(N-(azetidin-3-yl)carbamimidoyl)phenoxy)propanoic acid] | 0.25 µg/mL (≈ 0.369 µM) | 0.25 µg/mL (≈ 0.369 µM) |
